Measured values reported in patent US9822115B2, “Nitrogen containing compounds and their use as antibacterial agents” (WOCKHARDT LIMITED, priority 2014, dated 2017).
In brackets after ≈: the same amount, converted by molar mass. Where two headings read alike, the source gives them in different places.

Columns and labels:
[1] = system: E. coli NCTC 13353 (CTX-M15, OXA-1); experiment: Antibacterial activity, MIC by agar dilution (CLSI); assay type: cell-based; conditions: Escherichia coli, read-out: MIC
How it was run: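 CLSI agar dilution on Mueller Hinton agar containing doubling compound dilutions, inoculated at about 10^4 CFU/spot from fresh cultures. Plates were incubated 18 h at 37 °C in ambient air before growth scoring. MIC is reported in mcg/ml.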

[2] = system: K. pneumoniae H521 (KPC, SHV, TEM); experiment: as above; assay type: cell-based; conditions: Klebsiella pneumoniae, read-out: MIC
How it was run: (§1)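 Agar dilution per CLSI on Mueller Hinton agar with doubling compound dilutions, about 10^4 CFU/spot by multipoint inoculator. Plates incubated 16-20 h at 35±2° C in ambient air; procedure also gives 37° C for 18 h. MIC (mcg/ml) scored as growth or no growth.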

[3] = system: K. pneomoniae S48 (NDM, SHV, TEM); experiment: as above; assay type: cell-based, K. pneumoniae; conditions: Klebsiella pneumoniae; Table 2; K. pneomoniae S48 (NDM, SHV, TEM); read-out: MIC
How it was run: as §1

E. coli 7 MP = experiment: as above; assay type: cell-based; conditions: Escherichia coli, Table 3
Experimental: (§2) The biological activity of representative compounds according to the invention against various bacterial strains was investigated. In a typical study, overnight grown bacterial cultures were diluted appropriately and inoculated on the agar media containing doubling dilutions of the test compounds. Observations for growth or no growth was performed after 16-20 hours of incubation at 35±2° C. in the ambient air. The overall procedure was performed as per Clinical and Laboratory Standards Institute (CLSI) recommendations, (Clinical and Laboratory Standards Institute (CLSI), Performance Standards for Antimicrobial Susceptibility Testing, 20th Informational Supplement, M07-A9, Volume 32, No. 2, 2012). Molten Mueller Hinton Agar (BD, USA) containing serial dilutions of each antibacterial agent were poured on to the plates and allowed to solidify. Appropriate suspensions from the freshly grown cultures were prepared in normal saline so that about 10^4 CFU/spot of the organism was delivered on to the drug containing agar plates using automated multipoint inoculator (Mast, UK). The plates were incubated in Biochemical oxygen demand (BOD) incubator at 37° C. for 18 hours and then examined for growth.
(§3) Table 3 details the antibacterial activity of representative compound of Formula (I), Sodium salt of (2S,5R)-Sulfuric acid mono-[2-(N′-(4-hydroxyphenyl-acetyl)-hydrazinocarbonyl)-7-oxo-1,6-diaza-bicyclo[3.2.1]oct-6-yl]ester (Compound of Example 1) and Sodium salt of (2S,5R)-Sulfuric acid mono-[2-(N′-(pyridine-2-yl-acetyl)-hydrazinocarbonyl)-7-oxo-1,6-diaza-bicyclo[3.2.1]oct-6-yl] ester (Compound of Example 8), against various Multi Drug Resistant (MDR) Gram-negative bacterial strains.

E. coli M 50 = experiment: as above; assay type: cell-based; conditions: Escherichia coli, M50, Table 3
Experimental: as §2, §3

E. coli NCTC 13351 = experiment: as above; assay type: cell-based; conditions: Escherichia coli, NCTC13351, Table 3
Experimental: as §2, §3

P. aeruginosa 2779 = experiment: as above; assay type: cell-based; conditions: Pseudomonas aeruginosa, Table 3
Experimental: as §2, §3

P. aeruginosa ATCC 27853 = experiment: as above; assay type: cell-based; conditions: Pseudomonas aeruginosa, ATCC27853, Table 3
Experimental: as §2, §3

[4] = target: T1, Class A beta-lactamase, K. pneumoniae ATCC 700603 (SHV 18) (Klebsiella pneumoniae, UniProt P0AD64, E235K/G234A/R39S); experiment: biochemical
T1 construct: preincubated mixture of crude enzyme and the agents; endogenous in cells; host or cells: K. pneumoniae ATCC 700603
T1 sequence (P0AD64 22-286 R39S/G234A/E235K): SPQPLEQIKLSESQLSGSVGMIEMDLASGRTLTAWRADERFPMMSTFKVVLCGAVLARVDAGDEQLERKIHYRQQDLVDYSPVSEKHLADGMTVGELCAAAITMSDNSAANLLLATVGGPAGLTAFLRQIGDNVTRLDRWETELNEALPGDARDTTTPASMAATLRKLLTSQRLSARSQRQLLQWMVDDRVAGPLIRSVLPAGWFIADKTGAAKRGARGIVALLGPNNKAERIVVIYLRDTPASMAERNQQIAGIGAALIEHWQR
How it was run: (§4)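 Crude enzyme preincubated with inhibitor 10 min at 37 °C, then nitrocefin (100 uM) added for 5 min. Absorbance read at 485 nm; IC50 obtained from sigmoidal dose-response fit of absorbance versus concentration.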

[5] = system: T2, Class C beta-lactamase, E. coli M50 (CMY/DHA); assay type: biochemical; conditions: read-out: Beta-lactamase enzyme inhibition IC50
T2 construct: no borders, tags or purification printed
How it was run: as §4

[6] = target: T3, Class D beta-lactamase, A. baumannii NCTC 13301 (OXA 23) (Acinetobacter baumannii, UniProt Q9L4P2); experiment: Beta-lactamase enzyme inhibition (nitrocefin, crude enzyme); assay type: biochemical; conditions: Class D A. baumannii NCTC 13301 (OXA 23); read-out: Beta-lactamase enzyme inhibition IC50
T3 construct: preincubated mixture of crude enzyme and the agents; endogenous in cells; host or cells: A. baumannii NCTC 13301
T3 sequence (Q9L4P2 18-273): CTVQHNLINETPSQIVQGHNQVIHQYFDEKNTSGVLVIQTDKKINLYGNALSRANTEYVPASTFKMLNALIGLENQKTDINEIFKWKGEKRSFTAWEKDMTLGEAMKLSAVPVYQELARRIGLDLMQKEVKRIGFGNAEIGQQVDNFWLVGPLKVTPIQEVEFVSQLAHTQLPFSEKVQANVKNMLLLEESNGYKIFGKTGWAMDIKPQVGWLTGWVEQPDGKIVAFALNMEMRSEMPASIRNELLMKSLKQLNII
How it was run: as §4

E. coli M50 = experiment: Zone of inhibition, compound alone and in combination with ceftazidime (agar well); assay type: cell-based; conditions: Escherichia coli, M50, E. coli M50, read-out: Diameter of Zone of Inhibition; for zone of inhibition at 0.25 µg/disc: 0.25 μg/well; for zone of inhibition at 0.5 µg/disc: 0.5 μg/well; for zone of inhibition at 1 µg/disc: 1 μg/well
Experimental: (§5) Determination of antibacterial activity of combinations according to invention: In a typical experiment, two sets of plates containing growth media (Molten Mueller Hilton Agar) and bacterial strains were prepared. One set of plates was taken as control (without ceftazidime) and other set contained ceftazidime. The media was allowed to solidify and wells were punched later. A two-fold serial dilution range of each of the compounds according to invention was prepared and 50 μl of each of the dilution was added into the punched well. […] The Table 5 provides the antibacterial activity of the combination comprising compounds according to invention and ceftazidime.

E. coli NCTC 13353 = experiment: as above; assay type: cell-based; conditions: Escherichia coli, NCTC13353, E. coli NCTC 13353, read-out: Diameter of Zone of Inhibition; for zone of inhibition at 0.25 µg/disc: 0.25 μg/well; for zone of inhibition at 0.5 µg/disc: 0.5 μg/well; for zone of inhibition at 1 µg/disc: 1 μg/well
Experimental: as §5

[7] = NCTC13353, Table 2, E. Coli NCTC 13353 (CTX-M15, OXA-1)
[8] = NCTC13353, Table 3, E. coli NCTC 13353
[9] = Table 2, K. pneumoniae H521 (KPC, SHV, TEM)
[10] = Compound + Ceftazidime (10 μg/ml)

Row | SMILES | MIC [1, 7] [µg/mL] | MIC [1, 8] [µg/mL] | MIC [2, 9] [µg/mL] | MIC ([2]; Table 3, K. pneumoniae H 521) [µg/mL] | MIC [3] [µg/mL] | MIC (E. coli 7 MP) [µg/mL] | MIC (E. coli M 50) [µg/mL] | MIC (E. coli NCTC 13351) [µg/mL] | MIC (P. aeruginosa 2779) [µg/mL] | MIC (P. aeruginosa ATCC 27853) [µg/mL] | IC50 [4] [nM] | IC50 [5] [nM] | IC50 [6] [nM] | zone of inhibition at 0.25 µg/disc (E. coli M50; [10]) [mm] | zone of inhibition at 0.5 µg/disc (E. coli M50; [10]) [mm] | zone of inhibition at 1 µg/disc (E. coli M50; [10]) [mm] | zone of inhibition at […] (E. coli M50; [10]) [mm] | zone of inhibition at 0.25 µg/disc (E. coli M50; Compound alone) [mm] | zone of inhibition at 0.5 µg/disc (E. coli M50; Compound alone) [mm] | zone of inhibition at 1 µg/disc (E. coli M50; Compound alone) [mm] | other results
1 | O=C(Cc1ccc(O)cc1)NNC(=O)[C@@H]1CC[C@@H]2CN1C(=O)N2OS(=O)(=O)[O-].[Na+] [Example 1, Sodium Salt of (2S,5R)-Sulfuric Acid mono-[2-(N′-(4-hydroxyphenyl-acetyl)-hydrazinocarbonyl)-7-oxo-1,6-diaza-bicyclo[3.2.1]oct-6-yl]ester] | 0.5 | 0.5 | 1 | 1 | 0.5 | 1 | 0.5 | 0.25 | > 32 | > 32 | 103 | 5 | 315 | 16 | 19 | 22 | 13 | 12 | 13.5 | 16 | zone of inhibition at 0.25 µg/disc (E. coli NCTC 13353; [10]): 18 mm; zone of inhibition at 0.5 µg/disc (E. coli NCTC 13353; [10]): 21 mm; zone of inhibition at 1 µg/disc (E. coli NCTC 13353; [10]): 25 mm; zone of inhibition at […] (E. coli NCTC 13353; [10]): 16 mm; zone of inhibition at 0.25 µg/disc (E. coli NCTC 13353; Compound alone): 14.5 mm; zone of inhibition at 0.5 µg/disc (E. coli NCTC 13353; Compound alone): 15.5 mm; zone of inhibition at 1 µg/disc (E. coli NCTC 13353; Compound alone): 17 mm
2 | NCCOc1ccccc1CC(=O)NNC(=O)[C@@H]1CC[C@@H]2CN1C(=O)N2OS(=O)(=O)O [Example 2, (2S,5R)-Sulfuric Acid mono-[2-(N′-{2-[2-(2-amino-ethoxy)-phenyl]-acetyl}-hydrazinocarbonyl)-7-oxo-1,6-diaza-bicyclo[3.2.1]oct-6-yl]ester] | 1 (≈ 2.19 µM) | 0.5 (≈ 1.09 µM) | 1 (≈ 2.19 µM) | 2 (≈ 4.37 µM) | 1 (≈ 2.19 µM) | 2 (≈ 4.37 µM) | 1 (≈ 2.19 µM) | 1 (≈ 2.19 µM) | > 32 | > 32 | 119 | 122 | 3770 | 13 | 16.5 | 18.5 | 10 | 10 | 14 | 16 | zone of inhibition at 0.25 µg/disc (E. coli NCTC 13353; [10]): 21 mm; zone of inhibition at 0.5 µg/disc (E. coli NCTC 13353; [10]): 24 mm; zone of inhibition at 1 µg/disc (E. coli NCTC 13353; [10]): 28 mm; zone of inhibition at […] (E. coli NCTC 13353; [10]): 17 mm; zone of inhibition at 0.25 µg/disc (E. coli NCTC 13353; Compound alone): 11 mm; zone of inhibition at 0.5 µg/disc (E. coli NCTC 13353; Compound alone): 14 mm; zone of inhibition at 1 µg/disc (E. coli NCTC 13353; Compound alone): 16 mm
